Laboratory results published in patent US6355474B1, “Immunostimulatory and metastasis inhibiting fermented vegetal material” (priority 1997, dated 2002).

Experiments:
[1] = Stability (storage) tests via 2.6-DMBQ / 2-MBQ concentration by HPLC; format: physicochemical
Description: The decomposition of the material according to the invention was checked via the chanqes in concentration of the 2.6-dimethoxy-p-benzoquinone. We conducted storage experiments at three different temperatures (room temperature 20° C. 40° C. and 60° C.) The lyophilisate—about 1 g—as stored in test-tubes which were sealed air-tight. The duration of the experiments was 8 weeks, every week three parallel measurements were conducted on samples taken from all three series kept at different temperatures. The quantitative analysis of benzoquinone derivatives was conducted by HPLC.

[2] = literature; cited from earlier work
malignant tumour cells = settings: literature; cited from earlier work

Structure (SMILES) | decomposition of 2-methoxy-p-benzoquinone in the stored material ([1]; room temperature) | decomposition of 2-methoxy-p-benzoquinone in the stored material ([1]; samples kept at 40 or 60° C.) | fungicidal and bacteriostatic effect [2] | cytotoxicity for malignant tumour cells (malignant tumour cells)
COC1=CC(=O)C=CC1=O [2-MBQ, 2-methoxy-p-benzoquinone] | remained unchanged | could not be shown after one week of storage | fungicidal and bacteriostatic effect | 
COC1=CC(=O)C=C(OC)C1=O [2.6-DMBQ, 2.6-dimethoxy-p-benzoquinone] |  |  | fungicidal and bacteriostatic effect | cytotoxic
